Source: patent US10543189B2, “2-acetylnaphtho[2,3-b]furan -4,9-dione for use on treating cancer” (Boston Biomedical, Inc., priority 2013, dated 2020)
“And” between values parts separate entries of the source, which are not always exact repeats. Identical values can stand only once. Like-named read-outs stand apart in the source and are kept apart here.

How the values were obtained:
[1] = test system: phosphorylated STAT3 (p-STAT3); test: Immunohistochemistry of CRC patient tumor tissue for p-STAT3; format: in vivo, human; conditions: 100 mg/kg QD (single daily dosage), FIG. 3A
Experimental: CRC patient's archival tumor tissue samples were analyzed through immunohistochemistry (IHC) using labeled antibodies against phosphorylated STAT3 (p-STAT3). […] For instance, 40% of the patients with high p-STAT3 levels before treatment survived longer than 100 weeks whereas only 10% of those with low or no p-STAT3 levels before treatment survived beyond 100 weeks. This further confirms that the Compound of the Invention downregulates that STAT3 pathway, and that the STAT3 pathway is implicated in colorectal cancers.

[2] = test system: solid tumor that is metastatic, unresectable, or recurrent; test: Phase I dose escalation trial: preliminary antitumor activity; format: in vivo, human
Experimental: Each cycle consists of twice-daily oral administration of the compound for 4 weeks. Cycles were repeated every 4 weeks (28 days) until progression of disease, unacceptable toxicity, or another discontinuation criterion is met. The dose escalation trial was conducted as open label and multicenter trial. A modified Simon accelerated titration scheme was used for dose escalation.
The primary objective of the trial was to determine the safety, tolerability, and recommended phase II dose (RP2D). The secondary objectives of the trial were to determine the pharmacokinetic profile of the compound, pharmacodynamics of the compound, and preliminary antitumor activity of the compound.
The inclusion criteria included histologically or cytologically confirmed solid tumor that is metastatic, unresectable, or recurrent; >18 years of age; Measurable disease by RECIST; and Kamofsky ≥70%. The exclusion criteria included chemotherapy, radiotherapy, immunotherapy or investigational agent within 4 weeks of first dose; surgery within 4 weeks of first dose; and known brain metastases.

[3] = Phase I dose escalation trial: safety, tolerability, adverse events; format: in vivo, human; conditions: Phase 1, dose escalated from 20 mg to 2000 mg/day
Excerpt: The most common adverse events were: diarrhea, nausea, and fatigue. Grade 3 or greater events include: fatigue and diarrhea.

[4] = Phase I dose escalation trial: pharmacokinetic profile; format: in vivo, human; conditions: for Tmax / AUC(0-t) / concentration at 24 h / half-life / Cmax / AUC: human, plasma, oral, patient plasma; for AUC(0-t): read-out: AUC0-24; for concentration at 24 h: read-out: C24h; for half-life: read-out: T1/2,t (converted)
Experimental: Pharmacokinetics profile with oral bid dosing was also studied. The plasma concentration of the drug reached several folds over the efficacious concentration (in vitro IC50) as illustrated in Table 8.
To maintain drug plasma concentration at or above the efficacious level for a desirable duration and to further increase peak plasma concentration, we studied the pharmacokinetics of a 500 mg BID regimen (at 4 hour interval between two doses on the same day or “q4h”), and compared it to that of a 500 mg QD regimen (FIG. 1). […] In another suitable dosing regimen, 500 mg of Compound 1 were administered three times a day (TID) to human subjects.

cancer cells = test: Antitumor activity of the compound in patient urine; format: cell-based; conditions: compound in patient urine tested against cancer cells
[5] = Total Daily Dose 20 mg, Colon adencarcinoma
[6] = Total Daily Dose 400 mg, Colon adenocarcinoma
[7] = Total Daily Dose 400 mg, Ovarian carcinoma
[8] = Total Daily Dose 500 mg, Breast carcinoma (triple negative)
[9] = 20 mg, Total Daily Dose 20 (mg), qd
[10] = 40 mg, Total Daily Dose 40 (mg), qd
[11] = 80 mg, Total Daily Dose 80 (mg), bid q4h
[12] = 80 mg, Total Daily Dose 80 (mg), qd
[13] = 160 mg, Total Daily Dose 160 (mg), bid q4h
[14] = 320 mg, Total Daily Dose 320 (mg), bid q4h
[15] = 400 mg, Total Daily Dose 400 (mg), bid q4h
[16] = 600 mg, Total Daily Dose 600 (mg), bid q4h
[17] = 800 mg, Total Daily Dose 800 (mg), bid q4h
[18] = 1000 mg, Total Daily Dose 1000 (mg), bid q4h
[19] = 1000 mg, Total Daily Dose 1000 (mg), bid q6h
[20] = 1400 mg, Total Daily Dose 1400 (mg), bid q4h
[21] = 1500 mg, Total Daily Dose 1500 (mg), tid q4h
[22] = 2000 mg, Total Daily Dose 2000 (mg), bid q4h

With `CC(=O)c1cc2c(o1)C(=O)c1ccccc1C2=O` [Compound 1, 2-acetylnaphtho[2,3-b]furan-4,9-dione] the “p-STAT3 in the patient tissue after treatment (IHC)” value [1] was “almost no longer any detectable p-STAT3”, the “antitumor activity in a kidney with colon cancer lesions” value ([2]; 20 mg QD, very high concentration of the drug in urine) was “signs of particularly potent antitumor activity” and the “regression of a colon cancer metastatic lesion to kidney” value ([2]; Patient 0001) was “complete regression”. The “disease control (disease stabilization and tumor regression), patients evaluable for tumor response” value ([2]; Phase I, tumors refractory to chemotherapies) was 65%, the “Weeks on Study” value [2, 5] was 76 weeks and the regression [2, 5] was 22%. For the same compound, the “Weeks on Study” value ([2]; Total Daily Dose 80 mg, Head and fleck carcinoma) was 17 weeks, the “Weeks on Study” value ([2]; Total Daily Dose 320 mg, Colon adenocarcinoma (two patients)) was 24 weeks and 12 weeks and the CEA [2, 6] was 50%. For the same compound, the “Weeks on Study” value [2, 6] was 11 weeks, the “Weeks on Study” value ([2]; Total Daily Dose 400 mg, Gastric adenocarcinoma) was 19 weeks and the CA125 [2, 7] was “CA125 normalization”. For the same compound, the “Weeks on Study” value [2, 7] was 16 weeks, the “Weeks on Study” value [2, 8] was 29 weeks and the “outcome after surgical resection of remaining hollowed lesion” value [2, 8] was “resected; patient disease free)”. For the same compound, the “Weeks on Study” value ([2]; Total Daily Dose 800 mg, Chondrosarocoma) was 13 weeks, the “Weeks on Study” value ([2]; Total Daily Dose 1000 mg, Adrenocarticoid carcinoma) was 17 weeks and the “Weeks on Study” value ([2]; Total Daily Dose 1000 mg, Colon: adencarcinoma) was 16 weeks. The “Weeks on Study” value ([2]; Total Daily Dose 1400 mg, Melanona) was 16 weeks, the “maximum tolerated dose (MTD)” value [3] was “not reached” and the “patient exposure, 500 mg three times a day (TID) versus twice daily” value ([4]; human subjects) was “not significantly improved”. For the same compound, the Tmax [4, 9] was 3 h, the AUC(0-t) [4, 9] was 2.01 µM·h and the concentration at 24 h [4, 9] was 30 nM. It also gave a half-life [4, 9] of 18.5 h, a Cmax [4, 10] of 500 nM and a Tmax [4, 10] of 0.5 h. For the same compound, the AUC(0-t) [4, 10] was 3.44 µM·h, the concentration at 24 h [4, 10] was 30 nM and the half-life [4, 10] was 4.5 h. The AUC [4, 11] was 8.13 µM·h, the Cmax [4, 11] was 900 nM and the Tmax [4, 11] was 8.1 h. For the same compound, the AUC(0-t) [4, 11] was 7.95 µM·h, the concentration at 24 h [4, 11] was 30 nM and the half-life [4, 11] was 3.6 h. The Cmax [4, 12] was 2240 nM, the Tmax [4, 12] was 1.5 h and the AUC(0-t) [4, 12] was 12.8 µM·h. The concentration at 24 h [4, 12] was 70 nM, the half-life [4, 12] was 5.2 h and the Cmax [4, 13] was 1330 nM. It also gave a Tmax [4, 13] of 3.9 h, an AUC [4, 14] of 38.3 µM·h and a Cmax [4, 14] of 2920 nM. The Tmax [4, 14] was 3.8 h, the AUC(0-t) [4, 14] was 33.1 µM·h and the concentration at 24 h [4, 14] was 240 nM. For the same compound, the half-life [4, 14] was 5.7 h, the AUC [4, 15] was 48.2 µM·h and the Cmax [4, 15] was 3750 nM. For the same compound, the Tmax [4, 15] was 7.9 h, the AUC(0-t) [4, 15] was 40.2 µM·h and the concentration at 24 h [4, 15] was 620 nM. The half-life [4, 15] was 6.9 h, the AUC [4, 16] was 37.1 µM·h and the Cmax [4, 16] was 2670 nM. The Tmax [4, 16] was 3.2 h, the AUC(0-t) [4, 16] was 27.8 µM·h and the concentration at 24 h [4, 16] was 420 nM. For the same compound, the half-life [4, 16] was 9 h, the AUC [4, 17] was 27 µM·h and the Cmax [4, 17] was 3040 nM. For the same compound, the Tmax [4, 17] was 4.3 h, the AUC(0-t) [4, 17] was 26.1 µM·h and the concentration at 24 h [4, 17] was 160 nM. For the same compound, the half-life [4, 17] was 4 h, the AUC [4, 18] was 50.7 µM·h and the Cmax [4, 18] was 4970 nM. For the same compound, the Tmax [4, 18] was 6.6 h, the AUC(0-t) [4, 18] was 45.1 µM·h and the concentration at 24 h [4, 18] was 290 nM. The half-life [4, 18] was 6.6 h, the AUC [4, 19] was 22.9 µM·h and the Cmax [4, 19] was 1360 nM. It also gave a Tmax [4, 19] of 5.7 h, an AUC(0-t) [4, 19] of 15.8 µM·h and a concentration at 24 h [4, 19] of 330 nM. For the same compound, the half-life [4, 19] was 12.7 h, the AUC [4, 20] was 45 µM·h and the Cmax [4, 20] was 2050 nM. For the same compound, the Tmax [4, 20] was 2.9 h, the AUC(0-t) [4, 20] was 28.2 µM·h and the concentration at 24 h [4, 20] was 650 nM. It also gave a half-life [4, 20] of 13.6 h, an AUC [4, 21] of 59.9 µM·h and a Cmax [4, 21] of 3750 nM. For the same compound, the Tmax [4, 21] was 7.3 h, the AUC(0-t) [4, 21] was 46.4 µM·h and the concentration at 24 h [4, 21] was 940 nM. For the same compound, the half-life [4, 21] was 8.2 h, the AUC [4, 22] was 45.8 µM·h and the Cmax [4, 22] was 1690 nM. The Tmax [4, 22] was 6.3 h, the AUC(0-t) [4, 22] was 25.9 µM·h and the concentration at 24 h [4, 22] was 800 nM. The half-life [4, 22] was 17.2 h, the “pharmacokinetics, 500 mg BID (q4h) versus 500 mg QD” value ([4]; patients, FIG. 1) was “no significant difference” and the “antitumor activity in patient urine” value (cancer cells) was “remained potent against cancer cells”.
